What all share (type): biochemical
Assay [1] addresses Pim-1 (Homo sapiens (Human), UniProt P11309). The experiment in a line: Pim-1 kinase assay (AlphaScreen, Biotin-labeled BAD peptide substrate). Particulars: 1 mM ATP; read-out: Pim1 IC50. The protocol:
(§1) Pim-1 and Pim-3 kinase assays—20 μL reactions were run in white 384 well polystyrene plates dotted with 0.8 μL compound/DMSO in the assay buffer (50 mM Tris, pH 7.5, 0.01% Tween-20, 5 mM MgCl2, 0.01% BSA, 5 mM DTT), containing 0.05 μM Biotin-labeled BAD peptide substrate (AnaSpec 62269), 1 mM ATP, and […] (Pim-1, Invitrogen PV3503) or […] (Pim-3, Millipore 14-738) enzyme for 1 h at 25° C. Reactions were stopped by addition of 10 μL STOP Buffer (150 mM Tris, pH=7.5, 150 mM NaCl, 75 mM EDTA, 0.01% Tween-20, 0.3% BSA) supplemented with Phospho-Bad (Ser112) Antibody (Cell Signaling 9291) diluted 666-fold, and Streptavidin donor beads (PerkinElmer 6760002) along with Protein-A acceptor beads (PerkinElmer 6760137) at 15 μg/mL each. Supplementation of the STOP buffer with beads and stopping the reactions were done under reduced light. Prior to the stopping reactions STOP buffer with beads was preincubated for 1 h in the dark at room temperature. After stopping the reactions, plates were incubated for 1 h in the dark at room temperature before reading on a PHERAstar FS plate reader (BMG Labtech) under reduced light.
(Alpha assays give light when donor and acceptor beads are brought close together.)

Assay [2] has as its target Pim-2 (Homo sapiens (Human), UniProt Q9P1W9). The experiment in a line: Pim-2 kinase assay (TR-FRET, Fluorescein-labeled CREBtide peptide substrate). Particulars: 1 mM ATP; read-out: Pim2 IC50. The protocol:
Pim-2 kinase assay—20 μL reactions were run in white 384 well polystyrene plates dotted with 0.8 μL compound/DMSO in the assay buffer (50 mM Tris, pH 7.5, 0.01% Tween-20, 5 mM MgCl2, 0.01% BSA, 5 mM DTT), containing 0.05 μM Fluorescein-labeled CREBtide peptide substrate (Invitrogen PV3508), 1 mM ATP, and 1 nM enzyme (Invitrogen PV3649) for 2 h at 25° C. Reactions were stopped by addition of 10 μL TR-FRET Dilution Buffer (Invitrogen PV3574) with 30 mM EDTA and 1.5 nM LanthaScreen Tb-CREB pSer133 antibody (Invitrogen PV3566). After 30 min. incubation at room temperature, plates were read on a PHERAstar FS plate reader (BMG Labtech).
(In general: Time-resolved FRET reads energy transfer from a long-lived donor to a nearby acceptor.)

The target in assay [3] is Pim-3 (Homo sapiens (Human), UniProt Q86V86). The experiment in a line: Pim-3 kinase assay (AlphaScreen, Biotin-labeled BAD peptide substrate). Particulars: 1 mM ATP; read-out: Pim3 IC50. The protocol:
as §1

Pim-2, sequence (Q9P1W9 whole entry): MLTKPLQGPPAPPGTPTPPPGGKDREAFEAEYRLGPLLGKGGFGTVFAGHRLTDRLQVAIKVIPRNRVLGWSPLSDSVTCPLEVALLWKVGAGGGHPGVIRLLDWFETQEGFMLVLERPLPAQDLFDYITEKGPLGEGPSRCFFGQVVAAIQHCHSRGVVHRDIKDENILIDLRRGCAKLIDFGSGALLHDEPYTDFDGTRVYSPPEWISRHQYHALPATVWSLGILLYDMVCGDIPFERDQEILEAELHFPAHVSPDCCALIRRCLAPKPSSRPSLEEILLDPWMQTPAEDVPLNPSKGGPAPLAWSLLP
Pim-1, sequence (P11309 whole entry): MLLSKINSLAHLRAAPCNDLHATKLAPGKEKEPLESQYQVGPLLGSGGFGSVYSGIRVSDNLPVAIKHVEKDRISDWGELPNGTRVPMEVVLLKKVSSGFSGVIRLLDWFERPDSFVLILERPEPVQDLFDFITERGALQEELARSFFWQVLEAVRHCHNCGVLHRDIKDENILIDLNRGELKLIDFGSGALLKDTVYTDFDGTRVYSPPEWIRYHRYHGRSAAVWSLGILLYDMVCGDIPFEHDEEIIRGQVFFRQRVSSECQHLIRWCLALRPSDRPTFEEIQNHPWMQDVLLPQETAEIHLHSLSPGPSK

Usually IC50 stands for the concentration at which inhibition is half-maximal. Regarding `C[C@H]1CN(c2ccncc2NC(=O)c2ccc3sc(C4CC4)nc3n2)C[C@@H](N)[C@@H]1O` [Example 79, N-{4-[(3R,4R,5S)-3-Amino-4-hydroxy-5-methylpiperidin-1-yl]pyridin-3-yl}-2-cyclopropyl[1,3]thiazolo[4,5-b]pyridine-5-carboxamide], the IC50 in assay [1] is at most 10 nM; in assay [2], 100 to 1000 nM; in assay [3], at most 10 nM.

Turning to `C[C@@H]1C[C@H](N)CN(c2ccncc2NC(=O)c2ccc3cc([C@@H]4C[C@H]4C)oc3n2)C1` (racemic) [Example 76, N-{4-[(3S,5R)-3-Amino-5-methylpiperidin-1-yl]pyridin-3-yl}-2-(trans-2-methylcyclopropyl)furo[2,3-b]pyridine-6-carboxamide], the IC50 is at most 10 nM in assay [1], at most 100 nM in assay [2] and at most 10 nM in assay [3].

For the molecule `CC(C)c1cc2nc(C(=O)Nc3cnccc3N3C[C@@H](N)[C@H](O)[C@@H](C)C3)ccc2s1` [Example 39, N-(4-((3R,4R,5S)-3-Amino-4-hydroxy-5-methylpiperidin-1-yl)pyridin-3-yl)-2-isopropylthieno[3,2-b]pyridine-5-carboxamide], the values for the IC50 in assay [1], in assay [2] and in assay [3] were at most 10 nM, at most 100 nM and at most 10 nM, respectively.

On to `N[C@H]1CCCN(c2ccncc2NC(=O)c2ccc3occ(-c4c(F)cccc4F)c3n2)C1` [Example 37, (S)-N-(4-(3-Aminopiperidin-1-yl)pyridin-3-yl)-3-(2,6-difluorophenyl)furo[3,2-b]pyridine-5-carboxamide], for which the half-inhibitory concentration (IC50) in assay [1] was at most 10 nM; in assay [2] it was at most 100 nM; in assay [3], at most 10 nM.

Consider `C[C@@H]1C[C@H](N)CN(c2ccncc2NC(=O)c2ccc3sc(-c4cnn(C)c4)cc3n2)C1` [Example 60, N-(4-((3S,5R)-3-Amino-5-methylpiperidin-1-yl)pyridin-3-yl)-2-(1-methyl-1H-pyrazol-4-yl)thieno[3,2-b]pyridine-5-carboxamide], for which the IC50 in assay [1] was at most 10 nM; in assay [2] it was at most 100 nM; in assay [3] it was at most 10 nM.

As for `CC(C)c1coc2ccc(C(=O)Nc3cnccc3N3C[C@H](C)C[C@H](N)C3)nc12` [Example 18, N-(4-((3S,5R)-3-Amino-5-methylpiperidin-1-yl)pyridin-3-yl)-3-isopropylfuro[3,2-b]pyridine-5-carboxamide], the figures for the IC50 in assay [1], in assay [2] and in assay [3] were at most 10 nM, at most 100 nM and at most 10 nM, respectively.

On to `C[C@H]1CN(c2ccncc2NC(=O)c2ccc3ccn(C4CCC4)c3n2)C[C@@H](N)[C@@H]1O` [Example 77, N-{4-[(3R,4R,5S)-3-Amino-4-hydroxy-5-methylpiperidin-1-yl]pyridin-3-yl}-1-cyclobutyl-1H-pyrrolo[2,3-b]pyridine-6-carboxamide], for which the values for the IC50 in assay [1], in assay [2] and in assay [3] were at most 10 nM, 1000 to 10000 nM and at most 10 nM, respectively.

Turning to `COc1ccc(-c2cc3nc(C(=O)Nc4cnccc4N4C[C@@H](N)[C@H](O)[C@@H](C)C4)ccc3s2)cn1` [Example 43, N-(4-((3R,4R,5S)-3-Amino-4-hydroxy-5-methylpiperidin-1-yl)pyridin-3-yl)-2-(6-methoxypyridin-3-yl)thieno[3,2-b]pyridine-5-carboxamide], the IC50 was at most 10 nM in assay [1], 100 to 1000 nM in assay [2] and at most 10 nM in assay [3].

As to `COc1ccc(-c2cc3nc(C(=O)Nc4cnccc4N4C[C@H](C)C[C@H](N)C4)ccc3o2)cn1` [Example 3, N-(4-((3S,5R)-3-Amino-5-methylpiperidin-1-yl)pyridin-3-yl)-2-(6-methoxypyridin-3-yl)furo[3,2-b]pyridine-5-carboxamide], the IC50 in assay [1] is at most 10 nM; in assay [2] it was above 2000 nM; in assay [3], at most 10 nM.

As to `C[C@H]1CN(c2ccncc2NC(=O)c2ccc3occ(C4CCOCC4)c3n2)C[C@@H](N)[C@@H]1O` [Example 17, N-(4-((3R,4R,5S)-3-Amino-4-hydroxy-5-methylpiperidin-1-yl)pyridin-3-yl)-3-(tetrahydro-2H-pyran-4-yl)furo[3,2-b]pyridine-5-carboxamide], the IC50 was at most 10 nM in assay [1], 100 to 1000 nM in assay [2] and at most 10 nM in assay [3].

As for `Cc1cc2nc(C(=O)Nc3cnccc3N3C[C@H](C)C[C@H](N)C3)ccc2s1` [Example 61, N-(4-((3S,5R)-3-Amino-5-methylpiperidin-1-yl)pyridin-3-yl)-2-methylthieno[3,2-b]pyridine-5-carboxamide], the figures for the IC50 in assay [1], in assay [2] and in assay [3] were at most 10 nM, 100 to 1000 nM and at most 10 nM, respectively.

As to `C[C@H]1CN(c2ccncc2NC(=O)c2ccc3cc([C@@H]4C[C@@H]4C)oc3n2)C[C@@H](N)[C@@H]1O` (racemic) [Example 73, N-{4-[(3R,4R,5S)-3-Amino-4-hydroxy-5-methylpiperidin-1-yl]pyridin-3-yl}-2-(cis-2-methylcyclopropyl)furo[2,3-b]pyridine-6-carboxamide], the values for the IC50 in assay [1], in assay [2] and in assay [3] were at most 10 nM, at most 100 nM and at most 10 nM, respectively.

With `COc1cncc(-c2coc3ccc(C(=O)Nc4cnccc4N4C[C@H](C)C[C@H](N)C4)nc23)c1` [Example 32, N-(4-((3S,5R)-3-Amino-5-methylpiperidin-1-yl)pyridin-3-yl)-3-(5-methoxypyridin-3-yl)furo[3,2-b]pyridine-5-carboxamide], the IC50 in assay [1] was at most 10 nM; in assay [2], 1000 to 10000 nM; in assay [3], at most 10 nM.

As for `C[C@@H]1C[C@H](N)CN(c2ccncc2NC(=O)c2ccc3cc(C4CC4)oc3n2)C1` [Example 70, N-{4-[(3S,5R)-3-Amino-5-methylpiperidin-1-yl]pyridin-3-yl}-2-cyclopropylfuro[2,3-b]pyridine-6-carboxamide], the half-inhibitory concentration (IC50) in assay [1] was at most 10 nM; in assay [2] it was at most 100 nM; in assay [3] it was at most 10 nM.

On to `C[C@@H]1C[C@H](N)CN(c2ccncc2NC(=O)c2ccc3occ(-c4cncc(C#N)c4)c3n2)C1` [Example 26, N-(4-((3S,5R)-3-Amino-5-methylpiperidin-1-yl)pyridin-3-yl)-3-(5-cyanopyridin-3-yl)furo[3,2-b]pyridine-5-carboxamide], for which the IC50 in assay [1] was at most 10 nM; in assay [2] it was above 2000 nM; in assay [3], 10 to 50 nM.

Consider `C[C@@H]1C[C@H](N)CN(c2ccncc2NC(=O)c2ccc3cc([C@@H]4C[C@@H]4C)oc3n2)C1` (racemic) [Example 75, N-{4-[(3S,5R)-3-Amino-5-methylpiperidin-1-yl]pyridin-3-yl}-2-(cis-2-methylcyclopropyl)furo[2,3-b]pyridine-6-carboxamide], for which the IC50 in assay [1] is at most 10 nM; in assay [2] it was at most 100 nM; in assay [3] it was at most 10 nM.

Turning to `C[C@@H]1C[C@H](N)CN(c2ccncc2NC(=O)c2ccc3sc(C4CC4)nc3n2)C1` [Example 80, N-(4-((3S,5R)-3-Amino-5-methylpiperidin-1-yl)pyridin-3-yl)-2-cyclopropylthiazolo[4,5-b]pyridine-5-carboxamide], the IC50 in assay [1] was at most 10 nM; in assay [2], 100 to 1000 nM; in assay [3] it was at most 10 nM.

As for `C[C@@H]1C[C@H](N)CN(c2ccncc2NC(=O)c2ccc3sc(-c4ccccc4)cc3n2)C1` [Example 58, N-(4-((3S,5R)-3-Amino-5-methylpiperidin-1-yl)pyridin-3-yl)-2-phenylthieno[3,2-b]pyridine-5-carboxamide], the IC50 was at most 10 nM in assay [1], 100 to 1000 nM in assay [2] and at most 10 nM in assay [3].

For `C[C@@H]1C[C@H](N)CN(c2ccncc2NC(=O)c2ccc3scc(C4CC4)c3n2)C1` [Example 65, N-(4-((3S,5R)-3-Amino-5-methylpiperidin-1-yl)pyridin-3-yl)-3-cyclopropylthieno[3,2-b]pyridine-5-carboxamide], the IC50 was at most 10 nM in assay [1], at most 100 nM in assay [2] and at most 10 nM in assay [3].

Regarding `N[C@H]1CCCN(c2ccncc2NC(=O)c2ccc3scc(C4CC4)c3n2)C1` [Example 67, (S)-N-(4-(3-Aminopiperidin-1-yl)pyridin-3-yl)-3-cyclopropylthieno[3,2-b]pyridine-5-carboxamide], the values for the IC50 in assay [1], in assay [2] and in assay [3] were at most 10 nM, 100 to 1000 nM and at most 10 nM, respectively.

For the molecule `CC(C)c1coc2ccc(C(=O)Nc3cnccc3N3C[C@@H](N)[C@H](O)[C@@H](C)C3)nc12` [Example 10, N-(4-((3R,4R,5S)-3-Amino-4-hydroxy-5-methylpiperidin-1-yl)pyridin-3-yl)-3-isopropylfuro[3,2-b]pyridine-5-carboxamide], the IC50 is at most 10 nM in assay [1], at most 100 nM in assay [2] and at most 10 nM in assay [3].
